Results on 12 compounds are retold here after publication PMC4207450, “Aurones: A Promising Heterocyclic Scaffold for the Development of Potent Antileishmanial Agents” (International Journal of Medicinal Chemistry, 2012).

Data set [1] deals with L. infantum intracellular amastigotes. Briefly: Growth inhibition of luciferase-expressing L. infantum intracellular amastigotes in THP1-differentiated macrophages. In kind it is cell-based, Leishmania infantum. The conditions noted are these: for IC50: Leishmania infantum, Macrophage, 72 h incubation, luciferase activity, infected THP1-differentiated macrophages. On the procedure:
A cloned line of L. infantum (MOM/MA671 TMAP263) promastigotes, stably expressing the luciferase gene (LUC), was grown in RPMI 1640 medium (Bio Whitaker, Belgium) supplemented with 10% heat-inactivated fetal bovine serum (FBS) (Bio Whitaker, Belgium), 2 mML-glutamine (Bio Whitaker, Belgium), 20 mM Hepes (Bio Whitaker, Belgium), 100 U/mL penicillin, and 100 μg/mL streptomycin (Bio Whitaker, Belgium). Selection of LUC positive parasites was done by adding geneticin-sulphate (Sigma-Aldrich, USA) to the culture media at a final concentration of 5 μg/mL. Parasites were maintained in culture, at 26°C by subpassage ([…]) at every 5 days.
L. infantum axenic amastigotes, stably expressing the LUC gene were derived from promastigotes by culturing them in MAA (Medium for Axenic Amastigotes) culture medium. MAA consisted of a modified medium 199 with Hanks balanced salt solution (Gibco-Invitrogen, Spain) supplemented with 0.5% soya broth trypto-casein (Bio-Rad, UK), 15 mM D-glucose (Panreac, Spain), 4 mM NaHCO3 (Sigma-Aldrich, USA). The pH was adjusted to 5.8, and the media was 0.2 μm sterilized by filtration and further supplemented with 0.023 mM bovine hemin (Fluka, USA), 5 mM L-glutamine, and 25% of heat inactivated FBS. Amastigotes were maintained in culture, at 37°C in an atmosphere containing 5% CO2 by subpassage (10^5 parasites/mL), at every 5 days.
THP1-differentiated macrophages were infected for a period of 4 h with stationary phase LUC expressing, L. infantum axenic amastigotes, at a 5 : 1 parasite to cell ratio. After the infection period, cells were washed with culture media to remove noninternalized parasites. Serial dilutions of the aurones, ranging from 50 to 0.78 μM in culture media, were added to the wells, in quadruplicate, and incubated for 72 h at 37°C, 5% CO2. After the incubation period, the luciferase activity of intracellular amastigotes was determined as described before. The percentage of growth inhibition was calculated as described above.

The test system of data set [2] is THP1-differentiated macrophages. The data set is described as follows: Toxicity of aurones on THP1-differentiated macrophages (MTT assay). Type of data set: cell-based, human. The conditions noted are these: for IC50: Homo sapiens, Macrophage, 72 h incubation, MTT assay, cytotoxicity; for toxicity to mammalian (THP1) cells, in words: THP1-differentiated macrophages. Here is the method: The human leukaemia monocyte THP1 cell line was cultured as a monolayer at 37°C in a humidified atmosphere containing 5% CO2. Cells were grown in RPMI 1640 medium, supplemented with 10% heat-inactivated FBS, 2 mM L-glutamine, 100 U/mL penicillin, and 100 μg/mL streptomycin, and were maintained in culture, by subpassage every 3 days.
For macrophage differentiation, human leukaemia monocyte cell line (THP-1 cells) cells were incubated in the presence of 20 ng/ml phorbol 12-myristate 13-acetate (PMA, Sigma-Aldrich) for 18 h at 37°C, 5% CO2, and left another 24 h with fresh medium containing no PMA to induce maturation. Serial dilutions of each aurone, ranging from 100 to 1.56 μM in culture media, were added to the wells, in quadruplicate, and incubated for 72 h at 37°C, 5% CO2. Cell viability was assessed by the MTT assay, as described before.
The IC50 value, that is, the concentration of the aurone necessary to decrease cell viability to 50% of the untreated control, was determined by linear regression analysis.

Where [3] appears, read: ratio of IC50 on THP1-differentiated macrophages to IC50 on intracellular parasite.

Molecules are shown by their SMILES. Read-outs that look alike come from different tables or passages of the source.

`COc1cc(OC)c2c(c1)O/C(=C\c1ccccc1)C2=O` [Compound 4l, 4,6-Dimethoxyaurone] yielded a melting point of 139 to 142 °C. Further, the IC50 in data set [1] was 2100 ± 900 nM. Further, the “Selectivity index (SI)” value in data set [1] (setting [3]) is recorded as 26.9. In data set [2], the midpoint of inhibition, the IC50, lay at 57.5 ± 3.4 µM.
On to `COc1cc(OC)c2c(c1)O/C(=C\c1ccccc1Cl)C2=O` [Compound 4k, 4,6-Dimethoxy-2′-chloro-aurone], for which the melting point is 191 to 193 °C. In addition, the IC50 in data set [1] came out at 12200 ± 1400 nM. The “Selectivity index (SI)” value in data set [1] (setting [3]) is reported as over 8.2. Also, in data set [2], the 50% inhibitory concentration (IC50) was over 100 µM and the “toxicity to mammalian (THP1) cells, in words” value is listed as “not toxic to mammalian cells”.
With `C[C@@H]1[C@H](O)[C@@H](C)/C=C/C=C/C=C/C=C/C=C/C=C/C=C/[C@H](O[C@@H]2O[C@H](C)[C@@H](O)[C@H](N)[C@@H]2O)C[C@@H]2O[C@](O)(C[C@@H](O)C[C@@H](O)[C@H](O)CC[C@@H](O)C[C@@H](O)CC(=O)O[C@H]1C)C[C@H](O)[C@H]2C(=O)O` [Amphotericin B, reference compound], in data set [1], the “Selectivity index (SI)” value is listed as 20.6 and the IC50 turned out to be 1200 ± 100 nM. The compound further returned an IC50 in data set [2] of 23.8 ± 2.3 µM.
`COc1ccccc1/C=C1\Oc2ccccc2C1=O` [Compound 4d] showed an IC50 in data set [2] of 17.5 ± 3.1 µM.
In data set [2], `COc1ccc(/C=C2\Oc3ccccc3C2=O)cc1OC` [Compound 4f] had an IC50 of 20.5 ± 1.2 µM.
On the same count and under the same terms, the figure for `Cc1ccc(/C=C2\Oc3ccccc3C2=O)cc1` [Compound 4b] is 8.5 ± 0.8 µM.
`O=C1/C(=C/c2ccc(Cl)cc2)Oc2ccccc21` [Compound 4c]: the IC50 in data set [2] was 14.5 ± 2.1 µM.
Still for that read-out and setting: the figure for `COc1ccc(/C=C2\Oc3cc(OC)cc(OC)c3C2=O)cc1` [Compound 4h] is 19.6 ± 2.5 µM.
`COc1cc(OC)c2c(c1)O/C(=C\c1ccccc1C)C2=O` [Compound 4j, 4,6-Dimethoxy-2′-methylaurone] yielded a melting point of 180 to 183 °C. For the same compound, in data set [1], the midpoint of inhibition, the IC50, lay at 1600 ± 200 nM. The “Selectivity index (SI)” value in data set [1] (setting [3]) amounted to 43.4. This compound also gave a concentration for half-maximal inhibition (IC50) in data set [2] of 68.1 ± 2.1 µM.
As to `COc1cc(OC)c2c(c1)O/C(=C\c1ccccc1OC)C2=O` [Compound 4i, 2′,4,6-trimethoxyaurone], the half-inhibitory concentration (IC50) in data set [1] was 1300 ± 100 nM; in data set [2], 75.4 ± 4.7 µM. The “Selectivity index (SI)” value in data set [1] (setting [3]) amounted to 57.5.
Regarding `COc1cccc(/C=C2\Oc3ccccc3C2=O)c1` [Compound 4e], the results for the IC50 in data set [1] and in data set [2] were 4700 ± 500 nM and 54.2 ± 7.3 µM, respectively. For the same compound, the “Selectivity index (SI)” value in data set [1] (setting [3]) worked out at 11.5. Also, the “toxicity to mammalian (THP1) cells, in words” value in data set [2] was “did not show significant toxicity”.
In data set [2], `COc1ccc(/C=C2\Oc3ccccc3C2=O)cc1` [Compound 4a] came in with an IC50 of 16.5 ± 3.1 µM.

The term IC50 denotes the concentration at which inhibition is half-maximal. Usually melting point stands for the temperature, or range, at which the solid turns liquid.
